Reference: BindingDB's records for doi:10.1021/jm00105a058 (J. Uriach & Cía., 1991)

assay: Inhibitory activity expressed as the concentration required to inhibit platelet-activating factor (PAF) induced maximum aggregation by 50%

SMILES | IC50
CCCCCCCCCCCCCCCCOCC1COC(COC(=O)N(C(C)=O)c2ccc[n+](CC)c2)C1 (stereo not given) | 2.3 µM
CCCCCCCCCCCCCCCCOCC1COC(COC(=O)N(Cc2ccccn2)C(C)=O)C1 (stereo not given) | 11 µM
CCCCCCCCCCCCCCCCCCOCC1OCC(COC(=O)N(Cc2cccc[n+]2CC)C(C)=O)O1 (stereo not given) | 0.14 µM
CCCCCCCCCCCCCCCC1CCC(COC(=O)N(Cc2cccc[n+]2CC)C(C)=O)O1 (stereo not given) | 0.08 µM
CCCCCCCCCCCCCCOCC1COC(COC(=O)N(Cc2cccc[n+]2CC)C(C)=O)O1 (stereo not given) | 0.11 µM
CCCCCCCCCCCCCCCCOCC1COC(COC(=O)NCc2cccc[n+]2CC)C1 (stereo not given) | 5.3 µM
CCCCCCCCCCCCCCCCOCC1OCC(COCCCCCC[n+]2ccsc2)O1 (stereo not given) | 1.3 µM
CCCCCCCCCCCCCCCC1CCC(COC(=O)CCCCC[n+]2ccsc2)O1 (stereo not given) | 3.1 µM
CCCCCCCCCCCCCCCCOCC1COC(COC(=O)N(Cc2cccc[n+]2CC)C(=O)OCC)C1 (stereo not given) | 0.073 µM
CCCCCCCCCCCCCCCCCCOCC1COC(COC(=O)N(Cc2cc[n+](CC)cc2)C(C)=O)C1 (stereo not given) | 1.6 µM
CCCCCCCCCCCCCC1OCC(COC(=O)CCCCC[n+]2ccsc2)O1 (stereo not given) | 20 µM
CCCCCCCCCCCCCCOCC1COC(COC(=O)N(Cc2cccc[n+]2CC)C(C)=O)C1 (stereo not given) | 0.085 µM
CCCCCCCCCCCCCCCCOCC1COC(COC(=O)N(Cc2cccc[n+]2CC)C(C)=O)C1 (stereo not given) | 0.018 µM
CCCCCCCCCCCCCCCCCC1OCC(COP(=O)([O-])OCC[N+](C)(C)C)O1 (stereo not given) | > 100 µM
CCCCCCCCCCCCCCCCCCOCC1CC(COC(=O)CCCCC[n+]2ccsc2)CO1 (stereo not given) | 1.5 µM
CCCCCCCCCCCCCCCCCC1OCC(COC(=O)CCCCC[n+]2ccsc2)O1 (stereo not given) | 1.1 µM
CCCCCCCCCCCCCCCCOCC1OCC(COC(=O)N(Cc2cccc[n+]2CC)C(C)=O)O1 (stereo not given) | 0.083 µM
CCCCCCCCCCCCCCCCCCOCC1COC(COC(=O)NCc2cc[n+](CC)cc2)C1 (stereo not given) | 8 µM
CCCCCCCCCCCCCCCCCCOCC1CC(COCCCCC[n+]2ccsc2)CO1 (stereo not given) | 2.1 µM
CCCCCCCCCCCCCCCCOCC1OCC(COC(=O)CCCCC[n+]2ccsc2)O1 (stereo not given) | 4.9 µM
CCCCCCCCCCCCCCCCCCOCC1COC(COC(=O)CCCCC[n+]2ccsc2)C1 (stereo not given) | 9.2 µM
CCCCCCCCCCCCCCC1COC(COCCCCCC[n+]2cccc3ccccc32)C1 (stereo not given) | 1.9 µM
CCCCCCCCCCCCCCCCCC1OCC(COCCCCCC[n+]2ccsc2)O1 (stereo not given) | 1.4 µM

SMILES | IC50
CCCCCCCCCCCCCCCCOCC1COC(COC(=O)N(C(C)=O)c2cc[n+](CC)cc2)C1 (stereo not given) | 0.86 µM
CCCCCCCCCCCCCCCCOCC1CC(COCCCCCC[n+]2ccsc2)CO1 (stereo not given) | 1.4 µM
CC1OCC(COC(=O)CCCCC[n+]2ccsc2)O1 (stereo not given) | 150 µM
CCCCCCCCCCCCCCCCOCC1COC(COCCCCCC[n+]2ccsc2)C1 (stereo not given) | 0.54 µM
CCCCCCCCCCCCCCCCCCC1COC(COC(=O)N(Cc2cccc[n+]2CC)C(C)=O)C1 (stereo not given) | 0.47 µM
CCCCCCCCCCCCCCCCCCOCC1COC(COC(=O)N=c2ccn(CC)cc2)C1 (stereo not given) | 1.9 µM
CCCCCCCCCCCCCCCCCC1COC(COC(=O)N(Cc2cccc[n+]2CC)C(C)=O)O1 (stereo not given) | 0.024 µM
CCCCCCCCCCCCCCCCCC1OCC(COCCCCCC[N+]2(C)CCOCC2)O1 (stereo not given) | 10 µM
CCCCCCCCCCCCCCCCC1COC(COCCCCCCC[n+]2ccsc2)C1 (stereo not given) | 1.7 µM
CCCCCCCCCCCCCCC1COC(COCCCCCC[N+](C)(C)C)C1 (stereo not given) | 8.2 µM
CCCCCCCCCCCCCCOCC1COC(COCCCCCCC[n+]2ccsc2)C1 (stereo not given) | 1.7 µM
CCCCCCCCCCCCCCC1COC(COP(=O)([O-])OCC[N+](C)(C)C)C1 (stereo not given) | > 200 µM
CCCCCCCCCCCCCCCCCC1OCC(COCCCCCC[N+](C)(C)C)O1 (stereo not given) | 2.4 µM
CCCCCCCCCCCCCCCCOCC1OCC(COCCCC[n+]2ccsc2)O1 (stereo not given) | 1.2 µM
CCCCCCCCCCCCCCCCCC1OCC(COCCCCCCCC[n+]2ccsc2)O1 (stereo not given) | 3.7 µM
CCCCCCCCCCCCCCCCCCOCC1CC(COCCCCCCC[n+]2ccsc2)CO1 (stereo not given) | 3.9 µM
CCCCCCCCCCCCCCCCOCC1COC(COC(=O)N(Cc2cccc[n+]2C)C(C)=O)C1 (stereo not given) | 0.2 µM
CCCCCCCCCCCCCCCCCC1OCC(COCCCCCC[n+]2cscc2C)O1 (stereo not given) | 3.1 µM
CCCCCCCCCCCCCCC1COC(COCCCCCCC[n+]2ccsc2)C1 (stereo not given) | 0.83 µM
CCCCCCCCCCCCCCC1COC(COCCCCCCCC[n+]2ccsc2)C1 (stereo not given) | 1.1 µM
CCCCCCCCCCCCCCC1COC(COC(=O)N(Cc2cccc[n+]2CC)C(C)=O)C1 (stereo not given) | 0.14 µM
CCCCCCCCCCCCCCC1COC(COP(=O)([O-])OCC[n+]2ccsc2)C1 (stereo not given) | > 100 µM
CCCCCCCCCCCCCCCCOCC1COC(COC(=O)NCCc2cccc[n+]2CC)C1 (stereo not given) | 2.8 µM

SMILES | IC50
CCCCCCCCCCCCOCC1COC(COCCCCCCC[n+]2ccsc2)C1 (stereo not given) | 1.1 µM
CCCCCCCCCCCCCCCCCC1OCC(COC(=O)N(Cc2cccc[n+]2CC)C(C)=O)O1 (stereo not given) | 0.21 µM
CCCCCCCCCCCCCCCCOCC1COC(COC(=O)N(Cc2cccc[n+]2CC)C(C)=O)O1 (stereo not given) [2-{[Acetyl-(4-hexadecyloxymethyl-[1,3]dioxolan-2-ylmethoxycarbonyl)-amino]-methyl}-1-ethyl-pyridinium; chloride] | 0.019 µM
CCCCCCCCCCCCCCCCCCOCC1COC(COC(=O)N(Cc2cccc[n+]2CC)C(C)=O)O1 (stereo not given) | 0.094 µM
CCCCCCCCCCCCCCC1COC(COP(=O)([O-])OCC[n+]2ccccc2)C1 (stereo not given) | > 100 µM
CCCCCCCCCCCCCCC1COC(COC(=O)CCCCC[n+]2ccsc2)C1 (stereo not given) | > 50 µM
CCCCCCCCCCCCCCCCCC1OCC(COCCCCCC[n+]2cccc3ccccc32)O1 (stereo not given) | 2.7 µM
CCCCCCCCCCCCCCC1COC(COCCCC[n+]2ccsc2)C1 (stereo not given) | 39 µM
CCCCCCCCCCCCCCCCCC1CCC(COC(=O)N(Cc2cccc[n+]2CC)C(C)=O)O1 (stereo not given) | 0.071 µM
CCCCCCCCCCCCCCCCOCC1COC(COC(=O)N(CCc2cccc[n+]2CC)C(C)=O)C1 (stereo not given) | 2.6 µM
CCCCCCCCCCCCCCC1COC(COCCCCCC[n+]2ccsc2)C1 (stereo not given) | 2.1 µM
CCCCCCCCCCCCCCCCCCOCC1COC(COC(=O)N(Cc2cccc[n+]2CC)C(C)=O)C1 (stereo not given) | 0.052 µM
CCCCCCCCCCCCCCCCCCOCC1COC(COC(=O)N(Cc2ccc[n+](CC)c2)C(C)=O)C1 (stereo not given) | 2.5 µM
CCCCCCCCCCCCCCCCCC1OCC(COCCCC[n+]2ccsc2)O1 (stereo not given) | 6 µM
CCCCCCCCCCCCCCCCCCCC1OCC(COC(=O)CCCCC[n+]2ccsc2)O1 (stereo not given) | 5.5 µM
CCCCCCCCCCCCCCCC1CCC(COCCCCCC[n+]2ccsc2)O1 (stereo not given) | 1.3 µM
CCCCCCCCCCCCCCCCOCC1CCC(COC(=O)N(Cc2cccc[n+]2CC)C(C)=O)O1 (stereo not given) | 0.099 µM
CCCCCCCCCCCCCCCCCC1OCC(COP(=O)([O-])OCC[n+]2ccccc2)O1 (stereo not given) | > 100 µM
CCCCCCCCCCCCCCOCC1COC(COCCCCCC[n+]2ccsc2)C1 (stereo not given) | 1.4 µM
CCCCCCCCCCCCCCCCCC1OCC(COCCCCCC[n+]2ccccc2)O1 (stereo not given) | 3 µM
CCCCCCCCCCCCCCCC1OCC(COC(=O)CCCCC[n+]2ccsc2)O1 (stereo not given) | 3 µM
CCCCCCCCCCCCCCCCOCC1COC(COC(=O)CCCCC[n+]2ccsc2)C1 (stereo not given) | 3.6 µM

assay: as above; remark: another data set of the same source

SMILES | IC50
CCCCCCCCCCCCCCCCOCC1COC(COC(=O)N(Cc2cccc[n+]2CC)C(C)=O)C1 (stereo not given) | 0.0082 µM
CCCCCCCCCCCCCCCCOCC1COC(COC(=O)N(Cc2cccc[n+]2CC)C(C)=O)O1 (stereo not given) [2-{[Acetyl-(4-hexadecyloxymethyl-[1,3]dioxolan-2-ylmethoxycarbonyl)-amino]-methyl}-1-ethyl-pyridinium; chloride] | 0.015 µM
